Data from ChEMBL document CHEMBL4507280 (2021).

Tests used:
[1] = target: Maternal embryonic leucine zipper kinase (Homo sapiens) (UniProt Q14680); conditions: Compound concentration 1000.0 nM
[2] = target: Tyrosine-protein kinase TXK (Homo sapiens) (UniProt P42681); conditions: Compound concentration 1000.0 nM
[3] = target: Cyclin-dependent kinase-like 2 (Homo sapiens) (UniProt Q92772); conditions: Compound concentration 1000.0 nM
[4] = target: Mitogen-activated protein kinase kinase kinase 2 (Homo sapiens) (UniProt Q9Y2U5); conditions: Compound concentration 1000.0 nM
[5] = target: Sodium-dependent noradrenaline transporter (Homo sapiens) (UniProt P23975); conditions: Compound concentration 10.0 uM
[6] = target: Cyclin-dependent kinase 8 (Homo sapiens) (UniProt P49336); conditions: Compound concentration 1000.0 nM
[7] = target: Serine/threonine-protein kinase PAK 3 (Homo sapiens) (UniProt O75914); conditions: Compound concentration 1000.0 nM
Chain of Serine/threonine-protein kinase PAK 3 (Homo sapiens) (O75914 whole entry, looked up): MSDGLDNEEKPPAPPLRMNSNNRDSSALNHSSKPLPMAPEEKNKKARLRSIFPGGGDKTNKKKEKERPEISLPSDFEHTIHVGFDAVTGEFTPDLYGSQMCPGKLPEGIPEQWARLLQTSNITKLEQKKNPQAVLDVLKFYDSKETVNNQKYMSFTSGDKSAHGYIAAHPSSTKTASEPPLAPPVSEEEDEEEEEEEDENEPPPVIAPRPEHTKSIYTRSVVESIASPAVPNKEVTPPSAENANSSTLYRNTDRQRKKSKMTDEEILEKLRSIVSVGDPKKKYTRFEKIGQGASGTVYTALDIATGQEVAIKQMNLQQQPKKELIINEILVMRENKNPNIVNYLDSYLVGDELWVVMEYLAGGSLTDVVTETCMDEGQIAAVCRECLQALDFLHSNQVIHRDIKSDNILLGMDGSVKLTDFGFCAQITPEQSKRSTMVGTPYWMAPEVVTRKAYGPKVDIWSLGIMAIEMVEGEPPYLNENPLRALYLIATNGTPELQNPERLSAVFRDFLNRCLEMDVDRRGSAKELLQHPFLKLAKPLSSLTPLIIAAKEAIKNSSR

[8] = target: Serine/threonine-protein kinase SIK3 (Homo sapiens) (UniProt Q9Y2K2); conditions: Compound concentration 1000.0 nM
Chain of Serine/threonine-protein kinase SIK3 (Homo sapiens) (Q9Y2K2 whole entry, looked up): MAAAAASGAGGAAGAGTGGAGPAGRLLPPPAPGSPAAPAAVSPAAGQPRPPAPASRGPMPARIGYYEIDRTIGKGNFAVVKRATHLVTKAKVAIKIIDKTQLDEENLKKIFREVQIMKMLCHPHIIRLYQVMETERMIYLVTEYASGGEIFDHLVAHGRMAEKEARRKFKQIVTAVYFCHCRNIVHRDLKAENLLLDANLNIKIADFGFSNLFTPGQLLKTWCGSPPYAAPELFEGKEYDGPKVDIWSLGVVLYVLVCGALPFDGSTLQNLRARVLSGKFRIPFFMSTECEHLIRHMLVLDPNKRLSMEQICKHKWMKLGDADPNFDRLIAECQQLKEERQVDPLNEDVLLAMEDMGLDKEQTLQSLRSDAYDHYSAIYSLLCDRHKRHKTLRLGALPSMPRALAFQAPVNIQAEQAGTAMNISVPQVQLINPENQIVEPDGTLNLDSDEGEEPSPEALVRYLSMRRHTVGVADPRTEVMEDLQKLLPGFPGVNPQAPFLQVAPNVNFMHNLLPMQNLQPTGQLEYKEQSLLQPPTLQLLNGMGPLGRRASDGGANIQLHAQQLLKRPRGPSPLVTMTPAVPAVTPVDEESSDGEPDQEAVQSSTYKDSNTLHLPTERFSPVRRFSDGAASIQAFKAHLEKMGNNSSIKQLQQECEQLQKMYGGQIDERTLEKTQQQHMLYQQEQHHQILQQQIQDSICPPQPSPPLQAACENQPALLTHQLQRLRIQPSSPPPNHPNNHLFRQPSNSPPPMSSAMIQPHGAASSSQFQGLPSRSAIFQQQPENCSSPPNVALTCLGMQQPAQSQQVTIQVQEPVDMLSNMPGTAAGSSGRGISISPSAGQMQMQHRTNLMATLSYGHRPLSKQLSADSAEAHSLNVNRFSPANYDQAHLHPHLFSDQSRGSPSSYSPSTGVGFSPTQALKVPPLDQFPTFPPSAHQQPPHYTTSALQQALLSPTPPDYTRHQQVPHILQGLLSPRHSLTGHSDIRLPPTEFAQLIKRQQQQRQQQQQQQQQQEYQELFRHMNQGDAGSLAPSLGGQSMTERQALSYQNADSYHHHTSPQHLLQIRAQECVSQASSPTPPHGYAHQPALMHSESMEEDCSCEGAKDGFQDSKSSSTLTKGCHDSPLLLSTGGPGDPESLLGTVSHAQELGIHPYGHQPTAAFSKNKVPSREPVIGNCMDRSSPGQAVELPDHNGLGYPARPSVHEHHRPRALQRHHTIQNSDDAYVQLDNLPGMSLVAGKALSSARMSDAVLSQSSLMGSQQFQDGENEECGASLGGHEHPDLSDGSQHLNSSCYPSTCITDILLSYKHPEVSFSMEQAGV

[9] = target: Serine/threonine-protein kinase TNNI3K (Homo sapiens) (UniProt Q59H18); conditions: Compound concentration 1000.0 nM
[10] = target: Ephrin type-A receptor 7 (Homo sapiens) (UniProt Q15375); conditions: Compound concentration 1000.0 nM
[11] = target: Homeodomain-interacting protein kinase 1 (Homo sapiens) (UniProt Q86Z02); conditions: Compound concentration 1000.0 nM
[12] = target: TGF-beta receptor type-2 (Homo sapiens) (UniProt P37173); conditions: Compound concentration 1000.0 nM
[13] = target: 5-hydroxytryptamine receptor 3A (Homo sapiens) (UniProt P46098); conditions: Compound concentration 10.0 uM
[14] = target: Rho-associated protein kinase 2 (Homo sapiens) (UniProt O75116); conditions: Compound concentration 1000.0 nM
[15] = target: Non-receptor tyrosine-protein kinase TYK2 (Homo sapiens) (UniProt P29597); conditions: Compound concentration 1000.0 nM
[16] = target: Mitogen-activated protein kinase kinase kinase 5 (Homo sapiens) (UniProt Q99683); conditions: Compound concentration 1000.0 nM
Chain of Mitogen-activated protein kinase kinase kinase 5 (Homo sapiens) (Q99683 whole entry): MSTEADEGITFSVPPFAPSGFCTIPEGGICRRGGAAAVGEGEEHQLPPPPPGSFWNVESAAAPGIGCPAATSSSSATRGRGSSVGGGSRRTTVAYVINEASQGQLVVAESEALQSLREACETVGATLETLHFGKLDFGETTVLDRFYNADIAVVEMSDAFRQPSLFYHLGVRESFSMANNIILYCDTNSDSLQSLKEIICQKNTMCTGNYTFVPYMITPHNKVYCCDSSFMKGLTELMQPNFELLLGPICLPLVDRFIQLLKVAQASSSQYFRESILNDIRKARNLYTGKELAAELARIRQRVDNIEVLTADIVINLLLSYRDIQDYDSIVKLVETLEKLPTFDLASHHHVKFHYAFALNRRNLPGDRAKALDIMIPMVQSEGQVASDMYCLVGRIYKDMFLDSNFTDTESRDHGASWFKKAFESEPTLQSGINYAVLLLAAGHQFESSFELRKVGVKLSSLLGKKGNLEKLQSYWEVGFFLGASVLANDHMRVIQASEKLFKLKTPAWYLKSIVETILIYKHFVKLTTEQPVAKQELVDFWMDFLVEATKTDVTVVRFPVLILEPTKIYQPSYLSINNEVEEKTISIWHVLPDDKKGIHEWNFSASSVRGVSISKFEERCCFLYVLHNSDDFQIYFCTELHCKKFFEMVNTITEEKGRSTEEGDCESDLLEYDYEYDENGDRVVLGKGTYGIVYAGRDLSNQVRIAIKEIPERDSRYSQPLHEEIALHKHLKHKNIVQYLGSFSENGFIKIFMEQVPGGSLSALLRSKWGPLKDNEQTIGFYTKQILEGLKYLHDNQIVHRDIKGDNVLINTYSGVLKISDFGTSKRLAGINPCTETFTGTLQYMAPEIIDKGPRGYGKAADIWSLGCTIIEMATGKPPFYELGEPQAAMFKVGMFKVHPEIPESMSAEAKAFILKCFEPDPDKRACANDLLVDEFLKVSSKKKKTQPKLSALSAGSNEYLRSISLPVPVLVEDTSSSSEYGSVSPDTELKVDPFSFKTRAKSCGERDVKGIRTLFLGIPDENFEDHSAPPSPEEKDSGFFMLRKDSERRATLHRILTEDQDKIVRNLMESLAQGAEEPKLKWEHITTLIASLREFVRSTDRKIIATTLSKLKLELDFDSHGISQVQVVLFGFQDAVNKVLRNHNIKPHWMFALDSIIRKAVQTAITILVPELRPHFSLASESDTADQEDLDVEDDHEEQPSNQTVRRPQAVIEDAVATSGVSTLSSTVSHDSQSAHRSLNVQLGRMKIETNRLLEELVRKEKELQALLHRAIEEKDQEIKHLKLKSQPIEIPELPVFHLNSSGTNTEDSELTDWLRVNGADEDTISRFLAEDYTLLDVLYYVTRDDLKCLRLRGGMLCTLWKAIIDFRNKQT

[17] = target: Rhodopsin kinase GRK1 (Homo sapiens) (UniProt Q15835); conditions: Compound concentration 1000.0 nM
[18] = target: Serine/threonine-protein kinase Nek7 (Homo sapiens) (UniProt Q8TDX7); conditions: Compound concentration 1000.0 nM
Chain of Serine/threonine-protein kinase Nek7 (Homo sapiens) (Q8TDX7 whole entry, looked up): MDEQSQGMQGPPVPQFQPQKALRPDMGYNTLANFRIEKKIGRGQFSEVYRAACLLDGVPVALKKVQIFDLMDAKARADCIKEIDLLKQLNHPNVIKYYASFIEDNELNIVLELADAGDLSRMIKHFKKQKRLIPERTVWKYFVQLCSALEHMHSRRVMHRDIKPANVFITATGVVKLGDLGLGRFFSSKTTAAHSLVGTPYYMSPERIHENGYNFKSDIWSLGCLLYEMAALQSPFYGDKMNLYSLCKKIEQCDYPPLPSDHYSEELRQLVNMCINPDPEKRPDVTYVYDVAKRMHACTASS

[19] = target: Macrophage colony-stimulating factor 1 receptor (Homo sapiens) (UniProt P07333); conditions: Compound concentration 1000.0 nM
[20] = target: Casein kinase I isoform gamma-2 (Homo sapiens) (UniProt P78368); conditions: Compound concentration 1000.0 nM
[21] = target: Eukaryotic translation initiation factor 2-alpha kinase 1 (Homo sapiens) (UniProt Q9BQI3); conditions: Compound concentration 1000.0 nM
[22] = target: T1, Alpha-1A adrenergic receptor (Homo sapiens) (UniProt P35348); conditions: Compound concentration 10.0 uM
T1 sequence (whole entry): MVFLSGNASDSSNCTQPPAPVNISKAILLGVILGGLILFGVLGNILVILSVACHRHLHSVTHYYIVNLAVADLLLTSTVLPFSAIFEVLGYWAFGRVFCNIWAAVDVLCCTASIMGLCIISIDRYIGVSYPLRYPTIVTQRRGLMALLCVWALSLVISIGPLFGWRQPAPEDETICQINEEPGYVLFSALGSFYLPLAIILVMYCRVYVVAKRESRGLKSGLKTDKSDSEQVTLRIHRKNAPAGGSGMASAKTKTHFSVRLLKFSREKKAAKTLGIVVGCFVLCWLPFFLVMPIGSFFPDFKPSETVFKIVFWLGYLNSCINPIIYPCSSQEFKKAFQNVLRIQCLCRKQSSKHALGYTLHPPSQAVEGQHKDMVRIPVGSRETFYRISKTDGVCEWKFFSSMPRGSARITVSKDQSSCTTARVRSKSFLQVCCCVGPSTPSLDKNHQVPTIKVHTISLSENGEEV

[23] = target: cGMP-dependent protein kinase 1 (Homo sapiens) (UniProt Q13976); conditions: Compound concentration 1000.0 nM
[24] = target: Mitogen-activated protein kinase 14 (Homo sapiens) (UniProt Q16539); conditions: Compound concentration 1000.0 nM
[25] = system: Epidermal growth factor receptor (Homo sapiens), P00533 [G719C]; conditions: Compound concentration 1000.0 nM
[26] = target: Receptor-type tyrosine-protein kinase FLT3 (Homo sapiens) (UniProt P36888); conditions: Compound concentration 1000.0 nM
[27] = target: Calcium-dependent protein kinase 1 (Plasmodium falciparum) (UniProt P62344); conditions: Compound concentration 1000.0 nM
[28] = target: Death-associated protein kinase 2 (Homo sapiens) (UniProt Q9UIK4); conditions: Compound concentration 1000.0 nM
[29] = target: G protein-coupled receptor kinase 4 (Homo sapiens) (UniProt P32298); conditions: Compound concentration 1000.0 nM
[30] = target: Cyclin-dependent kinase 13 (Homo sapiens) (UniProt Q14004); conditions: Compound concentration 1000.0 nM
[31] = target: Mitogen-activated protein kinase kinase kinase kinase 3 (Homo sapiens) (UniProt Q8IVH8); conditions: Compound concentration 1000.0 nM
Chain of Mitogen-activated protein kinase kinase kinase kinase 3 (Homo sapiens) (Q8IVH8 whole entry): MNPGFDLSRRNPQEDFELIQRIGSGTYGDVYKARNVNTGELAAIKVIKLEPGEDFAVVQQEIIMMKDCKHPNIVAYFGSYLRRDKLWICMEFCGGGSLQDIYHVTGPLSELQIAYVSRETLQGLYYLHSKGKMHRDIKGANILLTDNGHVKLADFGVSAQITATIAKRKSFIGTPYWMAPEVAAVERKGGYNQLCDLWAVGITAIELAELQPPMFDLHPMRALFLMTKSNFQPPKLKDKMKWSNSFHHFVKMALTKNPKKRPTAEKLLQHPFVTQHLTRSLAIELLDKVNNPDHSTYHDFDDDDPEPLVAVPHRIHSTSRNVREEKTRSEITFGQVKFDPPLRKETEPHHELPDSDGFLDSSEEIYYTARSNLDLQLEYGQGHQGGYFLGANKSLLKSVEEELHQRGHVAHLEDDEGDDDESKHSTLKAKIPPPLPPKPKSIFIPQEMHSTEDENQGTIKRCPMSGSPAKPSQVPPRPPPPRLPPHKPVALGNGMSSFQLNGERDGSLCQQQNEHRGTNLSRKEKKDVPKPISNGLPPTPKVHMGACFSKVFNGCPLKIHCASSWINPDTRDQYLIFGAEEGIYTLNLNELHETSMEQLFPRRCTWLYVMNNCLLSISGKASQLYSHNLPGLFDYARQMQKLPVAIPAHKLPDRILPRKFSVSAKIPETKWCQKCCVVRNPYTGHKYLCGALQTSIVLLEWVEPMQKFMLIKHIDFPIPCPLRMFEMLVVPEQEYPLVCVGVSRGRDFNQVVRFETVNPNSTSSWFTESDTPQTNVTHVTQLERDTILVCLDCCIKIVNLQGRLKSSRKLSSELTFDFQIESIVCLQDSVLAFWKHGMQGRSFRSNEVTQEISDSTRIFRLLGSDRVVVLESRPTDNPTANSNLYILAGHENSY

[32] = target: Serine/threonine-protein kinase tousled-like 1 (Homo sapiens) (UniProt Q9UKI8); conditions: Compound concentration 1000.0 nM
[33] = target: Serine/threonine-protein kinase 17B (Homo sapiens) (UniProt O94768); conditions: Compound concentration 1000.0 nM
[34] = target: Serine/threonine-protein kinase PAK 4 (Homo sapiens) (UniProt O96013); conditions: Compound concentration 1000.0 nM
[35] = target: Mitogen-activated protein kinase kinase kinase 6 (Homo sapiens) (UniProt O95382); conditions: Compound concentration 1000.0 nM
[36] = target: Cyclin-G-associated kinase (Homo sapiens) (UniProt O14976); conditions: Compound concentration 1000.0 nM
[37] = target: Muscarinic acetylcholine receptor M5 (Homo sapiens) (UniProt P08912); conditions: Compound concentration 10.0 uM
[38] = target: Cyclin-dependent kinase 16 (Homo sapiens) (UniProt Q00536); conditions: Compound concentration 1000.0 nM
[39] = target: Transient receptor potential cation channel subfamily M member 6 (Homo sapiens) (UniProt Q9BX84); conditions: Compound concentration 1000.0 nM

Chain of Tyrosine-protein kinase TXK (Homo sapiens) (P42681 whole entry): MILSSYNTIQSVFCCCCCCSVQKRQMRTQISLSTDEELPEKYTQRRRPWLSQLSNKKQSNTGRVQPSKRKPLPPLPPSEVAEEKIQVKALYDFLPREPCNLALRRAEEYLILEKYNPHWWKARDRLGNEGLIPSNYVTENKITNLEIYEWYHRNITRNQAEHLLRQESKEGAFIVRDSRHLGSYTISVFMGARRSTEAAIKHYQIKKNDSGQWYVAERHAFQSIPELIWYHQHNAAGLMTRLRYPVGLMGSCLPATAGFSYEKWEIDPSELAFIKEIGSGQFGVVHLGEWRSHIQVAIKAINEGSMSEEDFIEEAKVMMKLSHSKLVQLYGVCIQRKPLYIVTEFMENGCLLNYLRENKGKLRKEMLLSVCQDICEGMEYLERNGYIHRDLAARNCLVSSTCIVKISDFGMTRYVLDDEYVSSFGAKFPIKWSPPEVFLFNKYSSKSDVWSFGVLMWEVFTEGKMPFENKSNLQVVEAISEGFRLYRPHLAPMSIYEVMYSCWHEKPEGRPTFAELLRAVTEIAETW

CCC(=O)N[C@H]1CC[C@@H](C(=O)N(C)c2ccc(-c3nc4ccccc4o3)cc2)C1 [BI 99179]
inactive: residual activity [1] 94% | residual activity [2] 100% | residual activity [3] 100% | residual activity [4] 87% | inhibition [5] 2.94% | residual activity [6] 100% | residual activity [7] 98% | residual activity [8] 84% | residual activity [9] 100% | residual activity [10] 97% | residual activity [11] 80% | residual activity [12] 89% | inhibition [13] -1.4% | residual activity [14] 100% | residual activity [15] 83% | residual activity [16] 100% | residual activity [17] 77% | residual activity [18] 98% | residual activity [19] 56% | residual activity [20] 100% | residual activity [21] 93% | inhibition [22] 22.1% | residual activity [23] 100% | residual activity [24] 100% | residual activity [25] 100% | residual activity [26] 85% | residual activity [27] 83% | residual activity [28] 100% | residual activity [29] 100% | residual activity [30] 100% | residual activity [31] 85% | residual activity [32] 84% | residual activity [33] 84% | residual activity [34] 100% | residual activity [35] 76% | residual activity [36] 100% | inhibition [37] -0.421% | residual activity [38] 88% | residual activity [39] 76%

CCC(=O)N[C@@H]1CC[C@H](C(=O)N(C)c2ccc(-c3nc4ccccc4o3)cc2)C1 [BI 99990]
inactive: residual activity [1] 100% | residual activity [2] 77% | residual activity [3] 100% | residual activity [4] 100% | inhibition [5] 14.5% | residual activity [6] 100% | residual activity [7] 98% | residual activity [8] 100% | residual activity [9] 99% | residual activity [10] 100% | residual activity [11] 87% | residual activity [12] 100% | inhibition [13] -9.11% | residual activity [14] 100% | residual activity [15] 100% | residual activity [16] 100% | residual activity [17] 76% | residual activity [18] 100% | residual activity [19] 100% | residual activity [20] 100% | residual activity [21] 88% | inhibition [22] 19.4% | residual activity [23] 100% | residual activity [24] 95% | residual activity [25] 100% | residual activity [26] 84% | residual activity [27] 90% | residual activity [28] 100% | residual activity [29] 100% | residual activity [30] 100% | residual activity [31] 100% | residual activity [32] 100% | residual activity [33] 99% | residual activity [34] 100% | residual activity [35] 75% | residual activity [36] 100% | inhibition [37] 15.4% | residual activity [38] 100% | residual activity [39] 84%
